# In ChEMBL document CHEMBL1135216, “New 2-(1-adamantylcarbonyl)pyridine and 1-acetyladamantane thiosemicarbazones-thiocarbonohydrazones: cell growth inhibitory, antiviral and antimicrobial activity evaluation” (Bioorg Med Chem Lett, 2002):
# Tests used:
# [1] = tested on: CCRF-CEM; test: Tested for the inhibitory concentration against cell growth of human leukemic cell line CCRF-CEM; type: functional
# [2] = tested on: CCRF-CEM; test: Tested for the concentration required to reduce the viability of leukemia cells by 50% against cell growth of T cell leukemia cell line CCRF-CEM using MTT assay; type: functional; conditions: Homo sapiens, read-out: LC50 (the source's name)
# [3] = tested on: CCRF-CEM; test: Tested for the inhibitory concentration against cell growth of Tcell leukemic cell line CCRF-CEM using MTT assay; type: functional; conditions: Homo sapiens
# [4] = tested on: E6SM; test: Tested for antiviral activity against VSV-virus in human embryonic skin muscle fibroblasts; type: functional; conditions: Muscle tissue
# [5] = tested on: E6SM; test: Tested for antiviral activity against herpes simplex virus type 1(KOS) in E6SM cell line(human embryonic skin-muscle fibroblasts); type: functional
# [6] = tested on: E6SM; test: Tested for antiviral activity against vaccinia virus in human embryonic skin muscle fibroblast; type: functional; conditions: Muscle tissue
# [7] = tested on: HeLa; test: The compound was tested for antiviral activity against VSV-virus in human epithelial cells; type: functional
# [8] = tested on: E6SM; test: Tested for cytotoxic activity in human embryonic skin muscle fibroblast (E6SM); type: functional; conditions: Muscle tissue
# [9] = tested on: E6SM; test: Antiviral activity against thymidine kinase-deficient (TK-HSV-1)virus in E6SM cell line(human embryonic skin-muscle fibroblasts); type: functional
# [10] = tested on: E6SM; test: Antiviral activity against thymidine kinase-deficient (TK-HSV-2G) virus in E6SM cell line(human embryonic skin-muscle fibroblasts); type: functional
# [11] = tested on: Escherichia coli; test: Tested for the antimicrobial activity against Escherichia coli ATCC 25922; type: functional
# [12] = tested on: HEL; test: Tested for cytotoxic activity in human embryonic lung fibroblast (HEL); type: functional
# [13] = tested on: HEL; test: Tested for antiviral activity against human cytomegalovirus (AD-169) in human embryonic lung fibroblasts; type: functional
# [14] = tested on: HEL; test: Tested for antiviral activity against thymidine kinase deficient Varicella zoster virus in human embryonic lung fibroblasts; type: functional
# [15] = tested on: HEL; test: Tested for antiviral activity against thymidine kinase wild type Varicella zoster virus in human embryonic lung fibroblast; type: functional
# [16] = tested on: HeLa; test: Tested for antiviral activity against coxsackie-B4 virus in human epithelial cell line; type: functional
# [17] = tested on: HL-60; test: Tested for the inhibitory concentration against cell growth of human leukemic cell line HL60; type: functional
# [18] = tested on: HL-60; test: Tested for the concentration required to reduce the viability of leukemia cells by 50% against cell growth of HL60 acute myeloid leukemia using MTT assay; type: functional; conditions: Homo sapiens, read-out: LC50 (the source's name)
# [19] = tested on: HL-60; test: Tested for the inhibitory concentration against cell growth of HL60 acute myeloid leukemia using MTT assay; type: functional; conditions: Homo sapiens
# [20] = tested on: HeLa; test: Tested for cytotoxic activity in human epithelial cell line (HeLa); type: functional
# [21] = tested on: HuT78; test: Tested for the inhibitory concentration against cell growth of human leukemic cell line HuT78; type: functional
# [22] = tested on: HuT78; test: Tested for the concentration required to reduce the viability of leukemia cells by 50% against cell growth of HuT78 T lymphoma using MTT assay; type: functional; conditions: Homo sapiens, read-out: LC50 (the source's name)
# [23] = tested on: HuT78; test: Tested for the inhibitory concentration against cell growth of HuT78 T lymphoma using MTT assay; type: functional; conditions: Homo sapiens
# [24] = tested on: K562; test: Tested for the concentration required to reduce the viability of leukemia cells by 50% against cell growth of K562 chronic myeloid leukemia using MTT assay; type: functional; conditions: Homo sapiens, read-out: LC50 (the source's name)
# [25] = tested on: K562; test: Tested for the inhibitory concentration against cell growth of K562 chronic myeloid leukemia using MTT assay; type: functional; conditions: Homo sapiens
# [26] = tested on: K562; test: Tested for the inhibitory concentration against cell growth of human leukemic cell line K562; type: functional
# [27] = tested on: Klebsiella pneumoniae; test: Tested for the antimicrobial activity against Klebsiella pneumoniae ATCC 13883; type: functional
# [28] = tested on: MOLT-4; test: Tested for the inhibitory concentration against cell growth of human leukemic cell line MOLT-4; type: functional
# [29] = tested on: MT4; test: Tested for effective concentration required to protect MT-4 cells against the cytopathicity of HIV-1(IIIB); type: functional; conditions: Homo sapiens, read-out: LC50 (the source's name)
# [30] = tested on: MT4; test: Tested for effective concentration required to protect MT-4 cells against the cytopathicity of HIV-2(ROD); type: functional, cell-based; conditions: Homo sapiens
# [31] = tested on: MOLT-4; test: Tested for the concentration required to reduce the viability of leukemia cells by 50% against cell growth of T cell leukemia cell line MOLT-4 using MTT assay; type: functional; conditions: Homo sapiens, read-out: LC50 (the source's name)
# [32] = tested on: MOLT-4; test: Tested for the inhibitory concentration against cell growth of Tcell leukemic cell line MOLT-4 using MTT assay; type: functional; conditions: Homo sapiens
# [33] = tested on: MT4; test: Tested for cytotoxic concentration required to reduce the viability of MT-4 cells by 50%; type: functional; conditions: Homo sapiens
# [34] = tested on: RPMI-8226; test: Tested for the inhibitory concentration against cell growth of human leukemic cell line RPMI8226; type: functional
# [35] = tested on: RPMI-8226; test: Tested for the concentration required to reduce the viability of leukemia cells by 50% against cell growth of RPMI8226 multiple myeloma using MTT assay; type: functional; conditions: Homo sapiens, read-out: LC50 (the source's name)
# [36] = tested on: RPMI-8226; test: Tested for the inhibitory concentration against cell growth of […] multiple myeloma using MTT assay; type: functional; conditions: Homo sapiens
# [37] = tested on: Staphylococcus aureus; test: Tested for the antimicrobial activity against Staphylococcus aureus ATCC 6538; type: functional
# [38] = tested on: Staphylococcus epidermidis; test: Tested for the antimicrobial activity against Staphylococcus epidermidis ATCC 12228; type: functional
# [39] = Tested for the antimicrobial activity against Staphylococcus hominis ATCC 27844; type: functional
# [40] = tested on: Vero; test: Tested for cytotoxic activity in African green monkey kidney cells (Vero); type: functional; conditions: Chlorocebus sabaeus
# [41] = tested on: Vero; test: Tested for antiviral activity against Punta toro virus in African green monkey kidney cell (Vero); type: functional; conditions: Chlorocebus sabaeus
# [42] = tested on: Vero; test: Tested for antiviral activity against Reo-1 virus in African green monkey kidney cell (Vero); type: functional; conditions: Chlorocebus sabaeus
# [43] = tested on: Vero; test: Tested for antiviral activity against Sindbis virus in African green monkey kidney cell (Vero); type: functional; conditions: Chlorocebus sabaeus
# [44] = tested on: Vero; test: Tested for antiviral activity against coxsackie B-4 virus in African green monkey kidney cell (Vero); type: functional; conditions: Chlorocebus sabaeus
# [45] = tested on: Vero; test: Tested for antiviral activity against parainfluenza virus in african green monkey kidney cell (Vero); type: functional; conditions: Chlorocebus sabaeus
# [46] = tested on: Escherichia coli; test: Tested for the antimicrobial activity as minimum inhibitory concentration against Escherichia coli ATCC 25922; type: functional
# [47] = tested on: Klebsiella pneumoniae; test: Tested for the antimicrobial activity as minimum inhibitory concentration against Klebsiella pneumoniae ATCC 13883; type: functional
# [48] = tested on: Staphylococcus aureus; test: Tested for the antimicrobial activity as minimum inhibitory concentration against Staphylococcus aureus ATCC 6538; type: functional
# [49] = tested on: Staphylococcus epidermidis; test: Tested for the antimicrobial activity as minimum inhibitory concentration against Staphylococcus epidermidis ATCC 12228; type: functional
# [50] = tested on: Staphylococcus hominis; test: Tested for the antimicrobial activity as minimum inhibitory concentration against Staphylococcus hominis ATCC 27844; type: functional
# [51] = tested on: Escherichia coli; test: Tested for the antimicrobial activity minimum inhibitory concentration) against Escherichia coli; type: functional
# [52] = tested on: Klebsiella pneumoniae; test: Tested for the antimicrobial activity minimum inhibitory concentration) against Klebsiella pneumoniae; type: functional
# [53] = tested on: Staphylococcus hominis; test: Tested for the antimicrobial activity minimum inhibitory concentration) against Staphylococcus hominis; type: functional
smiles,measurement,setting,value
S=C(N/N=C(/c1ccccn1)C12CC3CC(CC(C3)C1)C2)NNC(=S)c1ccc(Cl)cc1,GI50,[1],76 µM
same,CC50,[2],100 µM
same,TGI,[3],100 µM
same,MIC,[4],> 16 µg/mL
same,MIC,[5],> 16 µg/mL
same,MIC,[6],> 16 µg/mL
same,MIC,[7],> 3.2 µg/mL
same,MCC,[8],80 µg/mL
same,MIC,[9],> 16 µg/mL
same,MIC,[10],> 16 µg/mL
same,MIC,[11],> 2000 µg/mL
same,MCC,[12],5 µg/mL
same,MIC,[13],> 5 µg/mL
same,MIC,[14],> 2 µg/mL
same,MIC,[15],> 2 µg/mL
same,MIC,[16],> 3.2 µg/mL
same,GI50,[17],4.1 µM
same,CC50,[18],85.5 µM
same,TGI,[19],9.5 µM
same,MCC,[20],> 16 µg/mL
same,GI50,[21],8 µM
same,CC50,[22],100 µM
same,TGI,[23],100 µM
same,CC50,[24],100 µM
same,TGI,[25],100 µM
same,GI50,[26],100 µM
same,MIC,[27],> 2000 µg/mL
same,GI50,[28],100 µM
same,EC50,[29],> 3 µM
same,EC50,[30],> 3 µM
same,CC50,[31],100 µM
same,TGI,[32],100 µM
same,CC50,[33],2.8 µM
same,GI50,[34],6.7 µM
same,CC50,[35],100 µM
same,TGI,[36],68.3 µM
same,MIC,[37],1000 µg/mL
same,MIC,[38],1000 µg/mL
same,MIC,[39],1000 µg/mL
same,MCC,[40],80 µg/mL
same,MIC,[41],> 16 µg/mL
same,MIC,[42],> 16 µg/mL
same,MIC,[43],> 16 µg/mL
same,MIC,[44],9.6 µg/mL
same,MIC,[45],> 16 µg/mL
CN[C@@H]1[C@H](O[C@H]2[C@H](O[C@H]3[C@H](O)[C@@H](O)[C@H](N=C(N)N)[C@@H](O)[C@@H]3N=C(N)N)O[C@@H](C)[C@]2(O)C=O)O[C@@H](CO)[C@H](O)[C@H]1O [STREPTOMYCIN],MIC,[46],0.6 µg/mL
same,MIC,[47],0.6 µg/mL
same,MIC,[48],2.1 µg/mL
same,MIC,[49],2.1 µg/mL
same,MIC,[50],2.1 µg/mL
NC(=O)c1ncn([C@@H]2O[C@H](CO)[C@@H](O)[C@H]2O)n1 [RIBAVIRIN],MIC,[4],400 µg/mL
same,MIC,[6],240 µg/mL
same,MIC,[7],240 µg/mL
same,MCC,[8],> 400 µg/mL
same,MIC,[51],> 400 µg/mL
same,MIC,[16],48 µg/mL
same,MCC,[20],> 400 µg/mL
same,MIC,[52],> 400 µg/mL
same,MIC,[53],> 400 µg/mL
same,MCC,[40],> 400 µg/mL
same,MIC,[41],16 µg/mL
same,MIC,[42],80 µg/mL
same,MIC,[43],80 µg/mL
same,MIC,[44],240 µg/mL
same,MCC,[45],48 µg/mL
